In ChEMBL document CHEMBL5291721, “A preclinical secondary pharmacology resource illuminates target-adverse drug reaction associations of marketed drugs” (Nat Commun, 2023):

How the values were obtained:
Adenosine receptor A3 = biological target: T1, Adenosine receptor A3 (Homo sapiens, UniProt P0DMS8)
T1 sequence (P0DMS8 whole entry): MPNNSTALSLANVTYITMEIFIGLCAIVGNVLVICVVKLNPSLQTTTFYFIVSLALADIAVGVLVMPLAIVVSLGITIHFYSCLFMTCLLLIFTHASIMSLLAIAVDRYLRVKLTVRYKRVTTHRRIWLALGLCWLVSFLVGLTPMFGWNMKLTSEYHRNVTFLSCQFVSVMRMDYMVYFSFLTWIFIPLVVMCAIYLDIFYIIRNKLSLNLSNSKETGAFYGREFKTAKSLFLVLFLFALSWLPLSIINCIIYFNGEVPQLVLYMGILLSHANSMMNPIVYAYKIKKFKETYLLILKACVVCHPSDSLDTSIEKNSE

[1] = biological target: Glutamate receptor ionotropic, NMDA 1 (Rattus norvegicus, UniProt P35439)
[2] = biological target: Sodium-dependent serotonin transporter (Homo sapiens, UniProt P31645)
Sodium-dependent serotonin transporter, sequence (P31645 whole entry): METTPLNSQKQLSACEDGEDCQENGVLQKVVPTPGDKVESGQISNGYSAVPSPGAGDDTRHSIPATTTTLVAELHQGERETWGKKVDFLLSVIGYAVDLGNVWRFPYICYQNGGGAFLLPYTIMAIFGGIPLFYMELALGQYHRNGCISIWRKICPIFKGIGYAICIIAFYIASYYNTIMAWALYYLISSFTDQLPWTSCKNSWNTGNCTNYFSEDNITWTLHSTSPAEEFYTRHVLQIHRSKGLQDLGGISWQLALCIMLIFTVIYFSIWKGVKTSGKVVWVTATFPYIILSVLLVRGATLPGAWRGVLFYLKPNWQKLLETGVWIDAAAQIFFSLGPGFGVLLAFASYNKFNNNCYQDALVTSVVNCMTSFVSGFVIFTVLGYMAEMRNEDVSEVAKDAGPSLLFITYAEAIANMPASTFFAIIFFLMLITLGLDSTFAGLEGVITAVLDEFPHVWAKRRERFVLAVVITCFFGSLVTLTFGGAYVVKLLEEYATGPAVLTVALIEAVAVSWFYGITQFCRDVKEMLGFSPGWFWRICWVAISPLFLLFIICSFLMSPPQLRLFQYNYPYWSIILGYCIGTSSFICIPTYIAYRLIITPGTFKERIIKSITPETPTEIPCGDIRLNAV

[3] = biological target: T2, 5-hydroxytryptamine receptor 1A (Homo sapiens, UniProt P08908)
T2 sequence (P08908 whole entry): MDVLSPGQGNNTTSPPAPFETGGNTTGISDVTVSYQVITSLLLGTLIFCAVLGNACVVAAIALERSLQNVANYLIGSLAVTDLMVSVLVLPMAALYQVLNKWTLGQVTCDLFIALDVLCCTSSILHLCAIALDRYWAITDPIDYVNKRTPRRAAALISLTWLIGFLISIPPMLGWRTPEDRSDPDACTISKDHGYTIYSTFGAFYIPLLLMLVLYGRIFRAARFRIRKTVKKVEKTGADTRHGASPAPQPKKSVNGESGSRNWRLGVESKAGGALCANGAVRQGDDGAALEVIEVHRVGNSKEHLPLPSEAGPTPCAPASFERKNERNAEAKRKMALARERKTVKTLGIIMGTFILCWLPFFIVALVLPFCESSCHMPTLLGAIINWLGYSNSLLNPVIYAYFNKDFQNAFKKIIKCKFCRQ

Vasopressin V1a receptor = Vasopressin V1a receptor (Homo sapiens, UniProt P37288)
Vasopressin V1a receptor, sequence (P37288 whole entry): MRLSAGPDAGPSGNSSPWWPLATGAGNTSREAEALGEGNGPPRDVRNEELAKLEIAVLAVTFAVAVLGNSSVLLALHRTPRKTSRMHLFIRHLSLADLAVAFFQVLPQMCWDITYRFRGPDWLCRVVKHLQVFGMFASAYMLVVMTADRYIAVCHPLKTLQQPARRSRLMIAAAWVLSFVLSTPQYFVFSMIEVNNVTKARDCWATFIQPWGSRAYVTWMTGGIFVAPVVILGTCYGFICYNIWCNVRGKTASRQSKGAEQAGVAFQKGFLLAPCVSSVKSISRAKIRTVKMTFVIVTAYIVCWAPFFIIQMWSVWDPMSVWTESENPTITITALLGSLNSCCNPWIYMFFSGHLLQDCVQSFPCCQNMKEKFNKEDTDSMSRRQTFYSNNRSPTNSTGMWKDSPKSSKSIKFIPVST

Prothrombin = Prothrombin (Homo sapiens, UniProt P00734); type: functional
[4] = biological target: T3, Muscarinic acetylcholine receptor M2 (Homo sapiens, UniProt P08172); type: functional, cell-based
T3 sequence (P08172 whole entry): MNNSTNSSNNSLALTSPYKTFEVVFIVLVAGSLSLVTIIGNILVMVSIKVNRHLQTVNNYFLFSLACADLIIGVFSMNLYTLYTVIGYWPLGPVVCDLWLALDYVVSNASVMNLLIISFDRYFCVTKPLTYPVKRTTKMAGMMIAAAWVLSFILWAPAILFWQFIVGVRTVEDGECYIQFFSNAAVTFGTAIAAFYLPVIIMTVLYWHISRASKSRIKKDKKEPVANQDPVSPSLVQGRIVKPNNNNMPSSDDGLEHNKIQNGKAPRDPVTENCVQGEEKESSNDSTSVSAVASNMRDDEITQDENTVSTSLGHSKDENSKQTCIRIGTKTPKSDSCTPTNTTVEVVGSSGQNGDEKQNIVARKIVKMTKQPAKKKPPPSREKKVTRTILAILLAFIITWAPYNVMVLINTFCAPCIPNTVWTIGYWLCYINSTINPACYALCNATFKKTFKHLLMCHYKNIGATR

[5] = biological target: T4, Amine oxidase [flavin-containing] A (Homo sapiens, UniProt P21397); type: functional
T4 sequence (P21397 whole entry): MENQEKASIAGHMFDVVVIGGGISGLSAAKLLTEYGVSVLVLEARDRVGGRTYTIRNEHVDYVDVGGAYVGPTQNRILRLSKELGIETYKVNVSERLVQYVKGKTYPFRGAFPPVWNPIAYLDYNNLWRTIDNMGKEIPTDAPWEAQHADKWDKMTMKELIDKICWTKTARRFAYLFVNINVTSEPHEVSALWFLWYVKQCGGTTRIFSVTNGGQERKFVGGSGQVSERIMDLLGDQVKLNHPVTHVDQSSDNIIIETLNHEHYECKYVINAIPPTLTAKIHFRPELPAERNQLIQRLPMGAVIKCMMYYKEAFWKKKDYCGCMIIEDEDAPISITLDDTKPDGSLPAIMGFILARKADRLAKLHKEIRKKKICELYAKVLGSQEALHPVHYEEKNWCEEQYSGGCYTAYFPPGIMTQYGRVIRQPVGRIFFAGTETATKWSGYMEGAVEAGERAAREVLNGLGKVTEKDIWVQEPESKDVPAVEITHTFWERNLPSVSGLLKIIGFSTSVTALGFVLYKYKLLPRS

B2 bradykinin receptor = biological target: T5, B2 bradykinin receptor (Homo sapiens, UniProt P30411)
T5 sequence (P30411 whole entry): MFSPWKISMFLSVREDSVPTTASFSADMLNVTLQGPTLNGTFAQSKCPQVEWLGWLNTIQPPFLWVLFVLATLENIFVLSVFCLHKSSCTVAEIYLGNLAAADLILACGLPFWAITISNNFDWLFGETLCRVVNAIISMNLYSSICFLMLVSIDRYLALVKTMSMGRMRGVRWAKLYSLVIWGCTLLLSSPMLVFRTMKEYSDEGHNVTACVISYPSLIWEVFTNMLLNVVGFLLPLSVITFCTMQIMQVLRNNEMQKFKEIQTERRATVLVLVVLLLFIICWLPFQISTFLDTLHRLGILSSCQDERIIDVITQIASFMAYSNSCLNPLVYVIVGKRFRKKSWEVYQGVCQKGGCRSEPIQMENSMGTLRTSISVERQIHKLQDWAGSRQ

[6] = biological target: Vascular endothelial growth factor receptor 2 (Homo sapiens, UniProt P35968); type: functional
Vascular endothelial growth factor receptor 2, sequence (P35968 whole entry): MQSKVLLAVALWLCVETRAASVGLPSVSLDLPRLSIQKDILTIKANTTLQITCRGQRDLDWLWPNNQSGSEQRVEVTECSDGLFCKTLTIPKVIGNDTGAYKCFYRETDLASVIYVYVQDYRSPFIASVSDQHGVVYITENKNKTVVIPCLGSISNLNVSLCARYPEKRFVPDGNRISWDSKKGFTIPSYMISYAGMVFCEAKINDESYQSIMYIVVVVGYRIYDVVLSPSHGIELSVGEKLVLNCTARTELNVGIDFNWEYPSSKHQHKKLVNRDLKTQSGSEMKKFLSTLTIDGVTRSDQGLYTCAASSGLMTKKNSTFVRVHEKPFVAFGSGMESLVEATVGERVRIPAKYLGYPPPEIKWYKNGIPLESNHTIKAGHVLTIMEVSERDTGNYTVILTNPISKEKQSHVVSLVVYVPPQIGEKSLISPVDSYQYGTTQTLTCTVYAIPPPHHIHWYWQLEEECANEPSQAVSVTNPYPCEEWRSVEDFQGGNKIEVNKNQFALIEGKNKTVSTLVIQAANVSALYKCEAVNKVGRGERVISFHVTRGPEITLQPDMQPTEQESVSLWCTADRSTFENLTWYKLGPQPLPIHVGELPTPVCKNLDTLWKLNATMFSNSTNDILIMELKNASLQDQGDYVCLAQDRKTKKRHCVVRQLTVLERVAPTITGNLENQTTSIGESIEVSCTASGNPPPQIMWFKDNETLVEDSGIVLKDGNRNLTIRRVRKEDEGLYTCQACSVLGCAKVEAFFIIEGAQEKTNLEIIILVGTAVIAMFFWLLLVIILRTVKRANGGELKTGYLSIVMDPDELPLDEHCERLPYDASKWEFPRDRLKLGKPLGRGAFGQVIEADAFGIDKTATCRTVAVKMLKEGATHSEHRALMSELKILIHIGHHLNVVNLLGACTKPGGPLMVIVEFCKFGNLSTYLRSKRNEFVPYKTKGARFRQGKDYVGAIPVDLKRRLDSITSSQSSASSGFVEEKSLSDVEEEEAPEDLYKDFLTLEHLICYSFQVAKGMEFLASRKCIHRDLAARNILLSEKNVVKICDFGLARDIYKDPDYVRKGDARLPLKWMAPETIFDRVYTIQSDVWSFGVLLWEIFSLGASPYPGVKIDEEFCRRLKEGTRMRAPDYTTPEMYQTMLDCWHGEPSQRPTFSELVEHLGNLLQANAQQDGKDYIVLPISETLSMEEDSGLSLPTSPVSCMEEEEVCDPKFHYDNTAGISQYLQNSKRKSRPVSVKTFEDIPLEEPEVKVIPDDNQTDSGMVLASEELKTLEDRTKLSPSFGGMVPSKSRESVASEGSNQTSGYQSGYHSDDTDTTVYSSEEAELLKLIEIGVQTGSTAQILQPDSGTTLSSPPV

[7] = biological target: T6, Alpha-1A adrenergic receptor (Homo sapiens, UniProt P35348); type: functional, cell-based
T6 sequence (P35348 whole entry): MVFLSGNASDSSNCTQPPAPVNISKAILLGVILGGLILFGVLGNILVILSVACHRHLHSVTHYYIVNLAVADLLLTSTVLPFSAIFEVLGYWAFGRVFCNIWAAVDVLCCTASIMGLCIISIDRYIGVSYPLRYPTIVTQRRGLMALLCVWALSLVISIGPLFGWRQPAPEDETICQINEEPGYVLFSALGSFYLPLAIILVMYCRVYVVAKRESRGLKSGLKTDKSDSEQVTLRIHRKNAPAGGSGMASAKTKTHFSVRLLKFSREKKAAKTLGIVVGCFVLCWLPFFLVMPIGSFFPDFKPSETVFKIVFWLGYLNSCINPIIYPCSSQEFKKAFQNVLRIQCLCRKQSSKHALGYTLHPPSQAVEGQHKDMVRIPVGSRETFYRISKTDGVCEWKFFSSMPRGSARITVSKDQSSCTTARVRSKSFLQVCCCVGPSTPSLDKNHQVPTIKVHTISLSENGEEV
Also: assay procedure not described here.

Compound	AC50 (Adenosine receptor A3)	AC50 [1]	AC50 [2]	AC50 [3]	AC50 (Vasopressin V1a receptor)	AC50 (Prothrombin)	AC50 [4]	AC50 [5]	AC50 (B2 bradykinin receptor)	AC50 [6]	AC50 [7]
CN(CCOc1ccc(NS(C)(=O)=O)cc1)CCc1ccc(NS(C)(=O)=O)cc1 [DOFETILIDE]	> 30 µM	> 10 µM	> 10 µM	> 30 µM	> 10 µM	> 30 µM	> 30 µM	> 30 µM	> 30 µM	> 30 µM	> 30 µM
COc1cc2c(cc1OC)C(=O)C(CC1CCN(Cc3ccccc3)CC1)C2 (stereo not drawn) [DONEPEZIL]	> 30 µM		> 30 µM		> 30 µM	> 30 µM			> 30 µM	> 30 µM	
CC(C(=O)O)c1ccc(N2CC=CC2)c(Cl)c1 (stereo not drawn) [PIRPROFEN]	> 30 µM	> 10 µM	> 10 µM	> 30 µM	> 10 µM	> 30 µM	> 10 µM	> 30 µM	> 30 µM	> 30 µM	> 30 µM
NC(=O)c1cnccn1 [PYRAZINAMIDE]	> 30 µM	> 30 µM		> 30 µM	> 30 µM	> 30 µM	> 30 µM	> 30 µM	> 30 µM	> 30 µM	> 30 µM
